These results are taken from US9376418B2, “Substituted pyridine spleen tyrosine kinase (SYK) inhibitors” (Merck Sharp & Dohme Corp., priority 2012, dated 2016).

Each structure is given as a SMILES string.

This test has as its target T1, recombinant human GST-SYK (Homo sapiens, UniProt P43405).
T1 construct: purchased Carna Biosciences 08-176
The experiment in a line: Homogeneous Time-Resolved Fluorescence (HTRF) assay for the recombinant human Syk enzyme. The settings on record: HTRF assay, recombinant human GST-SYK; IC50 given as class symbols; read-out: rhSYK Activity. The test is classed as biochemical. Here is the method:
Homogeneous Time-Resolved Fluorescence (HTRF) Assay for the Recombinant Human Syk Enzyme
A recombinant GST-hSYK fusion protein was used to measure potency of compounds to inhibit human Syk activity. The recombinant human GST-SYK (Carna Biosciences #08-176) ([…]) was incubated with various concentrations of the inhibitor diluted in DMSO (0.1% final concentration) for 10 minutes at room temperature in 15 mM Tris-HCl (pH 7.5), 0.01% tween 20, 2 mM DTT in 384 well plate format. To initiate the reaction the biotinylated substrate peptide (250 nM final concentration) that contains the phosphorylation site for Syk was added with magnesium (5 mM final concentration) and ATP (25 μM final concentration). Final volume of the reaction was 10 μL. Phosphorylation of the peptide was allowed to proceed for 45′ at room temperature. To quench the reaction and detect the phosphorylated product, 2 nM of a Europium-anti-phosphotyrosine antibody (Perkin Elmer #AD0161) and 70 nM SA-APC (Perkin-Elmer #CR130-100) were added together in 15 mM Tris pH 7.5, 40 mM EDTA, 0.01% tween 20. Final volume of the quenching solution was 10 μL. The resulting HTRF signal was measured after 30 minutes on an EnVision (Perkin-Elmer) reader using a time-resolved fluorescence protocol.
(In general: In TR-FRET formats the signal depends on donor and acceptor labels being close together.)
In the case of `CCCN1CCCN(c2ccc(-c3cc(C)cc(Nc4nccc(C(F)(F)F)n4)c3)cn2)CC1` [Example 7.60, N-{3-methyl-5-[6-(4-propyl-1,4-diazepan-1-yl)pyridin-3-yl]phenyl}-4-(trifluoromethyl)pyrimidin-2-amine], the IC50 was in the range of 100 to 1000 nM.
The value for `Cc1cc(Nc2nccc(C)n2)cc(-c2ccnc(CCC(=O)O)c2)c1` [Example 2.135, 3-(4-{3-methyl-5-[(4-methylpyrimidin-2-yl)amino]phenyl}pyridin-2-yl)propanoic acid] was below 100 nM.
In the case of `Cc1cc(Nc2nccc(C(F)(F)F)n2)cc(-c2ccc(N3CCC[C@@H](C(=O)N4CCC[C@H](C(=O)O)C4)C3)nc2)c1` [Example 7.150, (3S)-1-({(3R)-1-[5-(3-methyl-5-{[4-(trifluoromethyl)pyrimidin-2-yl]amino}phenyl)pyridin-2-yl]piperidin-3-yl}carbonyl)piperidine-3-carboxylic acid], the IC50 is below 100 nM.
`Cc1cc(Nc2nccc(C(F)(F)F)n2)cc(-c2ccc(NC(C)(CC(F)(F)F)c3nnn[nH]3)nc2)c1` (centres unmarked) [Example 18.7, N-[3-methyl-5-(6-{[4,4,4-trifluoro-2-(1H-tetrazol-5-yl)butan-2-yl]amino}pyridin-3-yl)phenyl]-4-(trifluoromethyl)pyrimidin-2-amine]: the IC50 is below 100 nM.
As to `CCCCOC(=O)C1CCC(C(C)(O)c2ccc(-c3cc(C)cc(Nc4nccc(C(F)F)n4)c3)cn2)CC1` (single isomer, unassigned) [Example 9.51, butyl trans-4-{(1R or 1S)-1-[5-(3-{[4-(difluoromethyl)pyrimidin-2-yl]amino}-5-methylphenyl)pyridin-2-yl]-1-hydroxyethyl}cyclohexanecarboxylate], the IC50 was 100 to 1000 nM.
As for `Cc1cc(Nc2nccc(C(F)(F)F)n2)cc(-c2ccc(N3CSCC3C(=O)O)nc2)c1` (centres unmarked) [Example 7.137, 3-[5-(3-methyl-5-{[4-(trifluoromethyl)pyrimidin-2-yl]amino}phenyl)pyridin-2-yl]-1,3-thiazolidine-4-carboxylic acid], the IC50 is below 100 nM.
As for `Cc1cc(Nc2ncc(F)c(C)n2)cc(-c2ccc(C(C)(O)C3CCC(C(=O)O)CC3)nc2)c1` (single isomer, unassigned) [Example 9.83, trans-4-[(1R or 1S)-1-(5-{3-[(5-fluoro-4-methylpyrimidin-2-yl)amino]-5-methylphenyl}pyridin-2-yl)-1-hydroxyethyl]cyclohexanecarboxylic acid], the figure is below 100 nM.
The value for `Cc1cc(Nc2nccc(C(F)(F)F)n2)cc(-c2ccnc(NC3(CO)CCCC3)c2)c1` [Example 15.50, (1-{[4-(3-methyl-5-{[4-(trifluoromethyl)pyrimidin-2-yl]amino}phenyl)pyridin-2-yl]amino}cyclopentyl)methanol] was below 100 nM; that for `Cc1cc(Nc2nccc(C(F)(F)F)n2)cc(-c2ccc(N3CCC(C(=O)N4CCC(C(=O)O)CC4)CC3)nc2)c1` [Example 7.141, 1-({1-[5-(3-methyl-5-{[4-(trifluoromethyl)pyrimidin-2-yl]amino}phenyl)pyridin-2-yl]piperidin-4-yl}carbonyl)piperidine-4-carboxylic acid] was below 100 nM.
As for `Cc1cc(Nc2nccc(C(C)C)n2)cc(-c2ccc(N[C@H]3CC[C@H](C(=O)O)CC3)nc2)c1` [Example 2.108, trans-4-{[5-(3-methyl-5-{[4-(1-methylethyl)pyrimidin-2-yl]amino}phenyl)pyridin-2-yl]amino}cyclohexanecarboxylic acid], the figure is below 100 nM; as for `O=C(O)CCc1cc(-c2cccc(Nc3nccc(C(F)(F)F)n3)c2)ccn1` [Example 2.129, 3-[4-(3-{[4-(trifluoromethyl)pyrimidin-2-yl]amino}phenyl)pyridin-2-yl]propanoic acid], below 100 nM.
On to `Cc1cc(Nc2nccc(C(F)(F)F)n2)cc(-c2ccc(NC3(C(N)=O)CC3)nc2)c1` [Example 12.8, 1-{[5-(3-methyl-5-{[4-(trifluoromethyl)pyrimidin-2-yl]amino}phenyl)pyridin-2-yl]amino}cyclopropanecarboxamide], for which the IC50 is below 100 nM.
The value for `Cc1cc(Nc2nccc(C(F)(F)F)n2)cc(-c2ccc(C(=O)N3CCOC(CCO)C3)nc2)c1` (centres unmarked) [Example 16.37, 2-(4-{[5-(3-methyl-5-{[4-(trifluoromethyl)pyrimidin-2-yl]amino}phenyl)pyridin-2-yl]carbonyl}morpholin-2-yl)ethanol] was below 100 nM; that for `Cc1cc(Nc2nccc(C3CC3)n2)cc(-c2ccnc(CCC(=O)O)c2)c1` [Example 2.137, 3-(4-{3-[(4-cyclopropylpyimidin-2-yl)amino]-5-methylphenyl}pyridin-2-yl)propanoic acid] was below 100 nM.
The value for `CC(=O)N1CCCN(c2cc(-c3cc(C)cc(Nc4nccc(C(F)(F)F)n4)c3)ccn2)CC1` [Example 15.75, N-{3-[2-(4-acetyl-1,4-diazepan-1-yl)pyridin-4-yl]-5-methylphenyl}-4-(trifluoromethyl)pyrimidin-2-amine] was 100 to 1000 nM; that for `Cc1cc(Nc2nccc(C(F)(F)F)n2)cc(-c2ccc(N3CCCC4(C3)OCCO4)nc2)c1` [Example 7.12, N-{3-[6-(1,4-dioxa-7-azaspiro[4.5]dec-7-yl)pyridin-3-yl]-5-methylphenyl}-4-(trifluoromethyl)pyrimidin-2-amine] was 100 to 1000 nM.
For the compound `COc1cncc(-c2cc(C)cc(Nc3nccc(C(F)(F)F)n3)c2)c1` [Example 2.58, N-[3-(5-methoxypyridin-3-yl)-5-methylphenyl]-4-(trifluoromethyl)pyrimidin-2-amine], the IC50 was below 100 nM.
As for `Cc1cc(Nc2nccc(C(F)(F)F)n2)cc(-c2ccc(C(=O)N3CCC[S+]([O-])CC3)nc2)c1` (centres unmarked) [Example 16.52, N-(3-methyl-5-{6-[(1-oxido-1,4-thiazepan-4-yl)carbonyl]pyridin-3-yl}phenyl)-4-(trifluoromethyl)pyrimidin-2-amine], the figure is below 100 nM; as for `Cc1cc(Nc2ncc(Br)c(C(F)(F)F)n2)cc(-c2ccc(NC(C)(C)C(=O)O)nc2)c1` [Example 7.152], below 100 nM; as for `Cc1cc(Nc2nccc(C(F)(F)F)n2)cc(-c2ccc(C(=O)N3CCN(CC(F)(F)F)CC3)nc2)c1` [Example 16.65, N-[3-methyl-5-(6-{[4-(2,2,2-trifluoroethyl)piperazin-1-yl]carbonyl}pyridin-3-yl)phenyl]-4-(trifluoromethyl)pyrimidin-2-amine], 100 to 1000 nM.
Regarding `O=C(O)c1ccnc(-c2cccc(Nc3nccc(C(F)(F)F)n3)c2)c1` [Example 2.11, 2-(3-{[4-(trifluoromethyl)pyrimidin-2-yl]amino}phenyl)pyridine-4-carboxylic acid], the IC50 lay in the range of 100 to 1000 nM.
As for `COc1ccnc(Nc2cc(C)cc(-c3ccc([C@]4(O)CC[C@H](C(=O)O)CC4)nc3)c2)n1` [Example 9.36, trans-4-hydroxy-4-(5-{3-[(4-methoxypyrimidin-2-yl)amino]-5-methylphenyl}pyridin-2-yl)cyclohexanecarboxylic acid], the figure is below 100 nM; as for `Cc1cc(Nc2nccc(C(F)(F)F)n2)cc(-c2ccc(OC3CCC(C(=O)O)CC3)nc2)c1` (centres unmarked) [Example 2.111, 4-{[5-(3-methyl-5-{[4-(trifluoromethyl)pyrimidin-2-yl]amino}phenyl)pyridin-2-yl]oxy}cyclohexanecarboxylic acid], below 100 nM.
On to `Cc1cc(Nc2nccc(C(F)(F)F)n2)cc(-c2ccc(N3CCC4(CCCCN4)CC3)nc2)c1` [Example 7.10, N-{3-[6-(1,9-diazaspiro[5.5]undec-9-yl)pyridin-3-yl]-5-methylphenyl}-4-(trifluoromethyl)pyrimidin-2-amine], for which the IC50 lay in the range of 100 to 1000 nM.
Take `Cc1cc(Nc2nccc(C(F)(F)F)n2)cc(-c2ccc(C3(O)CCNC(=O)CC3)nc2)c1` (centres unmarked) [Example 11.1, 5-Hydroxy-5-[5-(3-methyl-5-{[4-(trifluoromethyl)pyrimidin-2-yl]amino}phenyl)pyridin-2-yl]azepan-2-one]: the IC50 was below 100 nM.
Consider `Cc1cc(Nc2nccc(C(F)(F)F)n2)cc(-c2ccc(N3CCC(F)(F)CC3)nc2)c1` [Example 7.56, N-{3-[6-(4,4-difluoropiperidin-1-yl)pyridin-3-yl]-5-methylphenyl}-4-(trifluoromethyl)pyrimidin-2-amine], for which the IC50 was in the range of 100 to 1000 nM.
For `Cc1cc(Nc2nccc(C(F)(F)F)n2)cc(-c2ccc(/C=C(/F)C(=O)O)nc2)c1` [Example 24.4, (2E)-2-Fluoro-3-[5-(3-methyl-5-{[4-(trifluoromethyl)pyrimidin-2-yl]amino}phenyl)pyridin-2-yl]prop-2-enoic acid], the IC50 was below 100 nM.
The value for `Cc1cc(Nc2nccc(C(F)(F)F)n2)cc(-c2ccc(C(=O)NC3(CO)CCCC3)nc2)c1` [Example 16.21, N-[1-(hydroxymethyl)cyclopentyl]-5-(3-methyl-5-{[4-(trifluoromethyl)pyrimidin-2-yl]amino}phenyl)pyridin-2-carboxamide] was 100 to 1000 nM.
As for `Cc1cc(Nc2nccc(C(F)(F)F)n2)cc(-c2ccc(C(=O)NC(C)(CO)CO)nc2)c1` [Example 16.13, N-[2-hydroxy-1-(hydroxymethyl)-1-methylethyl]-5-(3-methyl-5-{[4-(trifluoromethyl)pyrimidin-2-yl]amino}phenyl)pyridine-2-carboxamide], the figure is below 100 nM.
